Biological target: T1, GPR40 (Homo sapiens, UniProt O14842)
T1 construct: expressed in transfected cells; host or cells: HEK293 cells stably expressing GPR40 (Hygromycin selection)
Assay: IP1 accumulation assay in HEK293 cells stably expressing GPR40
Assay type: cell-based
Procedure, shortened: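 HEK293 cells stably expressing human GPR40 were incubated with compounds (10-point, 3-fold dilution series) for 2 h at 37 °C, then IP1 was detected by HTRF (665/615 nm ratio). Effect was normalised to DMSO blank and AMG-1638 as 100%, and EC50 was derived from dose curves.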

[1] = IP1 accumulation, HEK293 cells stably expressing GPR40, 2 hours at 37° C., % effect relative to AMG-1638, table of Biological Example 1
[2] = Tables A-1a to A-7b (structure-property relationship), obtained by methods of Biological Example 1
[3] = Table A-8 (additional examples), obtained by methods of Biological Example 1

T1 sequence (O14842 whole entry): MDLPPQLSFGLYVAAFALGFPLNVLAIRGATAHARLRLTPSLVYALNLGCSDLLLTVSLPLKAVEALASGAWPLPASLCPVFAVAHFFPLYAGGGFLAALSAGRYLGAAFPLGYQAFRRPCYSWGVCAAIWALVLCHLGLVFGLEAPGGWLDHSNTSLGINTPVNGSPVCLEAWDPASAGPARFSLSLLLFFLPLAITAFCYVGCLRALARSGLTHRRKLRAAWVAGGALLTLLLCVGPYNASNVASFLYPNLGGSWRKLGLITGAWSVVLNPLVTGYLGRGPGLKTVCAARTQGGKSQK

EC50 [1] [nM] | EC50 [2] [nM] | EC50 [3] [nM] | SMILES
307 | 307 | – | COc1ccc(C(=O)N(CC(C)(C)CCn2cc(CCCCCCCCC(=O)NCC[N+](C)(CCC(=O)NCCN)CCC(=O)NCCN)nn2)c2cccc(C)n2)c(N2CCC(COc3cc([C@@H](CC(=O)O)C4CC4)ccn3)CC2)c1 [Example 111]
14.9 | 14.9 | – | COc1ccc(C(=O)N(CC(C)(C)CCn2cc(CCCCCCCCCCC(=O)NCCN(CCC(=O)NCCN)CCC(=O)NCCN)nn2)c2cccc(C)n2)c(N2CCC(COc3cc([C@@H](CC(=O)O)C4CC4)ccn3)CC2)c1 [Example 112]
6.27 | 6.27 | – | COc1ccc(C(=O)N(CC(C)(C)CCn2cc(CCCCCCCCCCC(=O)NCC[N+](C)(CCC(=O)NCCN)CCC(=O)NCCN)nn2)c2cccc(C)n2)c(N2CCC(COc3cc([C@@H](CC(=O)O)C4CC4)ccn3)CC2)c1 [Example 113]
0.42 | 0.42 | 0.42 | COc1ccc(C(=O)N(CC(C)(C)CCn2cc(CCCCCCCCCCCCC(=O)NCCN(CCC(=O)NCCN)CCC(=O)NCCN)nn2)c2cccc(C)n2)c(N2CCC(COc3cc([C@@H](CC(=O)O)C4CC4)ccn3)CC2)c1 [Example 114]
0.51 | 0.51 | 0.51 | COc1ccc(C(=O)N(CC(C)(C)CCn2cc(CCCCCCCCCCCCC(=O)NCC[N+](C)(CCC(=O)NCCN)CCC(=O)NCCN)nn2)c2cccc(C)n2)c(N2CCC(COc3cc([C@@H](CC(=O)O)C4CC4)ccn3)CC2)c1 [Example 115]
0.21 | 0.21 | – | COc1ccc(C(=O)N(CC(C)(C)CCn2cc(CCCCCCCCCCCCCC(=O)NCCN(CCC(=O)NCCN)CCC(=O)NCCN)nn2)c2cccc(C)n2)c(N2CCC(COc3cc([C@@H](CC(=O)O)C4CC4)ccn3)CC2)c1 [Example 116]
0.29 | 0.29 | – | COc1ccc(C(=O)N(CC(C)(C)CCn2cc(CCCCCCCCCCCCCC(=O)NCC[N+](C)(CCC(=O)NCCN)CCC(=O)NCCN)nn2)c2cccc(C)n2)c(N2CCC(COc3cc([C@@H](CC(=O)O)C4CC4)ccn3)CC2)c1 [Example 117]
0.33 | 0.33 | – | COc1ccc(C(=O)N(CC(C)(C)CCn2cc(CCCCCCCCCCCCCCC(=O)NCCN(CCC(=O)NCCN)CCC(=O)NCCN)nn2)c2cccc(C)n2)c(N2CCC(COc3cc([C@@H](CC(=O)O)C4CC4)ccn3)CC2)c1 [Example 118]
0.1 | 0.1 | – | COc1ccc(C(=O)N(CC(C)(C)CCn2cc(CCCCCCCCCCCCCCC(=O)NCC[N+](C)(CCC(=O)NCCN)CCC(=O)NCCN)nn2)c2cccc(C)n2)c(N2CCC(COc3cc([C@@H](CC(=O)O)C4CC4)ccn3)CC2)c1 [Example 119]
1290 | – | – | COc1ccc(F)c(-c2ccc(COc3cccc([C@@H](CC(=O)O)C4CC4)c3)cc2CC(C)(C)Cn2cc(CCCCCCCCCCCC(=O)NCCCN(CC(=O)O)CC(=O)O)nn2)c1 [Example 120]
5 | – | – | COc1ccc(F)c(-c2ccc(COc3cccc([C@@H](CC(=O)O)C4CC4)c3)cc2CC(C)(C)Cn2cc(CCCCCCCCCCCCCCCC(=O)NCCCN(CC(=O)O)CC(=O)O)nn2)c1 [Example 121]
1000 | – | – | COc1ccc(F)c(-c2ccc(COc3cccc([C@@H](CC(=O)O)C4CC4)c3)cc2CC(C)(C)Cn2cc(CCCCCCCCCCCC(=O)NCCC[N+](C)(CC(=O)[O-])CC(=O)O)nn2)c1 (stereo partly shown) [Example 122]
32.7 | – | – | COc1ccc(F)c(-c2ccc(COc3cccc([C@@H](CC(=O)O)C4CC4)c3)cc2CC(C)(C)Cn2cc(CCCCCCCCCCCCCCCC(=O)NCCC[N+](C)(CC(=O)[O-])CC(=O)O)nn2)c1 (stereo partly shown) [Example 123]
226 | 226 | – | COc1ccc(C(=O)N(CC(C)(C)CCn2cc(CCCCCCCCCC(=O)NCCCN(CC(=O)O)CC(=O)O)nn2)c2cccc(C)n2)c(N2CCC(COc3cc([C@@H](CC(=O)O)C4CC4)ccn3)CC2)c1 [Example 124]
617 | 617 | – | COc1ccc(C(=O)N(CC(C)(C)CCn2cc(CCCCCCCCCC(=O)NCCC[N+](C)(CC(=O)[O-])CC(=O)O)nn2)c2cccc(C)n2)c(N2CCC(COc3cc([C@@H](CC(=O)O)C4CC4)ccn3)CC2)c1 (stereo partly shown) [Example 125]
5.81 | 5.81 | – | COc1ccc(C(=O)N(CC(C)(C)CCn2cc(CCCCCCCCCCCC(=O)NCCCN(CC(=O)O)CC(=O)O)nn2)c2cccc(C)n2)c(N2CCC(COc3cc([C@@H](CC(=O)O)C4CC4)ccn3)CC2)c1 [Example 126]
6.36 | 6.36 | – | COc1ccc(C(=O)N(CC(C)(C)CCn2cc(CCCCCCCCCCCC(=O)NCCC[N+](C)(CC(=O)[O-])CC(=O)O)nn2)c2cccc(C)n2)c(N2CCC(COc3cc([C@@H](CC(=O)O)C4CC4)ccn3)CC2)c1 (stereo partly shown) [Example 127]
1.33 | 1.33 | – | COc1ccc(C(=O)N(CC(C)(C)CCn2cc(CCCCCCCCCCCCCC(=O)NCCCN(CC(=O)O)CC(=O)O)nn2)c2cccc(C)n2)c(N2CCC(COc3cc([C@@H](CC(=O)O)C4CC4)ccn3)CC2)c1 [Example 128]
0.88 | 0.88 | – | COc1ccc(C(=O)N(CC(C)(C)CCn2cc(CCCCCCCCCCCCCC(=O)NCCC[N+](C)(CC(=O)[O-])CC(=O)O)nn2)c2cccc(C)n2)c(N2CCC(COc3cc([C@@H](CC(=O)O)C4CC4)ccn3)CC2)c1 (stereo partly shown) [Example 129]

EC50 [1] [nM] | EC50 [2] [nM] | EC50 [3] [nM] | SMILES
1.25 | 1.25 | – | COc1ccc(C(=O)N(CC(C)(C)CCn2cc(CCCCCCCCCCCCCCC(=O)NCCCN(CC(=O)O)CC(=O)O)nn2)c2cccc(C)n2)c(N2CCC(COc3cc([C@@H](CC(=O)O)C4CC4)ccn3)CC2)c1 [Example 130]
0.38 | 0.38 | – | COc1ccc(C(=O)N(CC(C)(C)CCn2cc(CCCCCCCCCCCCCCC(=O)NCCC[N+](C)(CC(=O)[O-])CC(=O)O)nn2)c2cccc(C)n2)c(N2CCC(COc3cc([C@@H](CC(=O)O)C4CC4)ccn3)CC2)c1 (stereo partly shown) [Example 131]
0.19 | 0.19 | – | COc1ccc(C(=O)N(CC(C)(C)CCn2cc(CCCCCCCCCCCCCCCCC(=O)NCCCN(CC(=O)O)CC(=O)O)nn2)c2cccc(C)n2)c(N2CCC(COc3cc([C@@H](CC(=O)O)C4CC4)ccn3)CC2)c1 [Example 132]
0.08 | 0.08 | – | COc1ccc(C(=O)N(CC(C)(C)CCn2cc(CCCCCCCCCCCCCCCCC(=O)NCCC[N+](C)(CC(=O)[O-])CC(=O)O)nn2)c2cccc(C)n2)c(N2CCC(COc3cc([C@@H](CC(=O)O)C4CC4)ccn3)CC2)c1 (stereo partly shown) [Example 133]
3600 | – | – | COc1ccc(F)c(-c2ccc(COc3cccc([C@@H](CC(=O)O)C4CC4)c3)cc2C(C)(C)c2cn(CCCCCCCCCC(=O)NCCN(CCC(=O)NCCN)CCC(=O)NCCN)nn2)c1 [Example 134]
3700 | > 3700 | – | COc1ccc(F)c(-c2ccc(COc3cccc([C@@H](CC(=O)O)C4CC4)c3)cc2CC(C)(C)Cc2cn(CCCCCCCCCC(=O)NCCN(CCC(=O)NCCN)CCC(=O)NCCN)nn2)c1 [Example 135]
1230 | – | – | COc1ccc(F)c(-c2ccc(COc3cccc([C@@H](CC(=O)O)C4CC4)c3)cc2OC(C)(C)Cn2cc(CCCCCCCCC(=O)NCCN(CCC(=O)NCCN)CCC(=O)NCCN)nn2)c1 [Example 136]
2600 | – | – | COc1ccc(F)c(-c2ccc(COc3cccc([C@@H](CC(=O)O)C4CC4)c3)cc2OC(C)(C)Cn2cc(CCCCCCCCCCC(=O)NCCN(CCC(=O)NCCN)CCC(=O)NCCN)nn2)c1 [Example 137]
6.87 | – | – | COc1ccc(F)c(-c2ccc(COc3cccc([C@@H](CC(=O)O)C4CC4)c3)cc2OC(C)(C)Cn2cc(CCCCCCCCCCCCCCC(=O)NCCN(CCC(=O)NCCN)CCC(=O)NCCN)nn2)c1 [Example 138]
8.54 | – | – | COc1ccc(F)c(-c2ccc(COc3cccc([C@@H](CC(=O)O)C4CC4)c3)cc2OC(C)(C)Cn2cc(CCCCCCCCCCCCCCC(=O)NCC[N+](C)(CCC(=O)NCCN)CCC(=O)NCCN)nn2)c1 [Example 139]
> 10000 | – | – | COc1ccc(F)c(-c2ccc(COc3cccc([C@@H](CC(=O)O)C4CC4)c3)cc2OC(C)(C)Cn2cc(CCCCCCCCC(=O)NCC[N+](C)(CCC(=O)NCCN)CCC(=O)NCCN)nn2)c1 [Example 140]
1650 | – | – | COc1ccc(F)c(-c2ccc(COc3cccc([C@@H](CC(=O)O)C4CC4)c3)cc2OC(C)(C)Cn2cc(CCCCCCCCCCC(=O)NCC[N+](C)(CCC(=O)NCCN)CCC(=O)NCCN)nn2)c1 [Example 141]
30.7 | – | – | COc1ccc(F)c(-c2ccc(COc3cccc([C@@H](CC(=O)O)C4CC4)c3)cc2OC(C)(C)Cn2cc(CCCCCCCCCCCCCC(=O)NCC[N+](C)(CCC(=O)NCCN)CCC(=O)NCCN)nn2)c1 [Example 142]
> 10000 | – | – | COc1ccc(F)c(-c2ccc(COc3cccc([C@@H](CC(=O)O)C4CC4)c3)cc2C(C)(C)c2cn(CCCCCCCCCC(=O)NCC[N+](C)(CCC(=O)NCCN)CCC(=O)NCCN)nn2)c1 [Example 143]
5170 | 5170 | – | COc1ccc(F)c(-c2ccc(COc3cccc([C@@H](CC(=O)O)C4CC4)c3)cc2CC(C)(C)Cn2cc(CCCCCCCCC(=O)NCC[N+](C)(CCC(=O)NCCN)CCC(=O)NCCN)nn2)c1 [Example 144]
0.19 | – | – | C[C@H](C(=O)O)[C@H](c1ccc2c(c1)O[C@@H](C1CCN(Cc3cc(-n4cc(CCCCCCCCCCCCCCCCCC(=O)NCCCN(C)CC(=O)NCCN)nn4)ccc3OC(F)(F)F)CC1)CC2)C1CC1 [Example 145]
0.12 | – | – | C[C@H](C(=O)O)[C@H](c1ccc2c(c1)O[C@@H](C1CCN(Cc3cc(-n4cc(CCCCCCCCCCCCCCCCCC(=O)NCCC[N+](C)(C)CC(=O)NCCN)nn4)ccc3OC(F)(F)F)CC1)CC2)C1CC1 [Example 146]
0.62 | – | – | COc1ccc(F)c(-c2ccc(COc3cccc([C@@H](CC(=O)O)C4CC4)c3)cc2CC(C)(C)Cn2cc(CCCCCCCCCCCCCCCCCC(=O)NCCCN(C)CC(=O)NCCN)nn2)c1 [Example 147]
0.43 | – | – | COc1ccc(F)c(-c2ccc(COc3cccc([C@@H](CC(=O)O)C4CC4)c3)cc2CC(C)(C)Cn2cc(CCCCCCCCCCCCCCCCCC(=O)NCCC[N+](C)(C)CC(=O)NCCN)nn2)c1 [Example 148]
